Data: ChEMBL document CHEMBL4196143, “Total Synthesis and Structure Revision of Palmarumycin B6” (2018)

Test system: Aedes albopictus
Test: Larvicidal activity against Aedes albopictus assessed as […] larval mortality after 24 hrs
Format: functional

SMILES	LC50 [µM]
O=C1CCC2(Oc3cccc4cccc(c34)O2)c2c(Cl)ccc(O)c21	227
O=C1CCC2(Oc3cccc4cccc(c34)O2)c2ccc(Cl)c(O)c21	32.7
